Where a name gives a salt, the structure may show the parent alone.
Target: HIF prolyl hydroxylase
Test: Inhibition of the activity of HIF prolyl hydroxylase (VBC complex binding test)
Assay type: biochemical
Excerpt: 1. In Vitro Tests for Determination of the Activity and Selectivity of HIF Prolyl 4-Hydroxylase Inhibitors 1.a) Inhibition of the Activity of HIF Prolyl Hydroxylase:
Hydroxylated HIF bonds specifically to the von Hippel-Lindau protein-elongin B-elongin C complex (VBC complex). This interaction occurs only if HIF is hydroxylated on a conserved prolyl radical. It is the basis for the biochemical determination of HIF prolyl hydroxylase activity.
A clear 96-well microtiter plate coated with NeutrAvidin HBC (Pierce) is incubated with blocker casein for 30 minutes. The plate is then washed three times with 200 μl each time of wash buffer (50 mM Tris, pH 7.5, 100 mM NaCl, 10% (v/v) blocker casein, 0.05% (v/v) Tween 20) per well. […] This peptide serves as a substrate for the prolyl hydroxylation and is bonded to the microtiter plate. After incubation for 60 minutes, the plate is washed three times with wash buffer, incubated with 1 mM biotin in blocker casein for 30 minutes and then washed again three times with wash buffer.
To carry out the prolyl hydroxylase reaction, the peptide substrate bonded to the plate is incubated with a cell lysate containing prolyl hydroxylase for 1 to 60 minutes. The reaction takes place in 100 μl reaction buffer (20 mM Tris, pH 7.5, 5 mM KCl, 1.5 mM MgCl2, 1 μM-1 mM 2-oxoglutarate, 10 μM FeSO4, 2 mM ascorbate) at room temperature. The reaction mixture moreover contains various concentrations of the prolyl hydroxylase inhibitor to be tested. The test substance is preferably, but not exclusively, employed at concentrations of between 1 nM and 100 μM. The reaction is stopped by washing the plate three times with wash buffer.
For quantitative determination of the prolyl hydroxylation, a fusion protein which contains both thioredoxin from E. coli and the VBC complex in 80 μl bonding buffer (50 mM Tris, pH 7.5, 120 mM NaCl) is added. After 15 minutes, 10 μl of a solution of polyclonal anti-thioredoxin antibodies from rabbit in bonding buffer are added. After a further 30 minutes, 10 μl of a solution of anti-rabbit immunoglobulin coupled to horseradish peroxidase in bonding buffer are added. After incubation at room temperature for 30 minutes, the plate is washed three times with wash buffer in order to remove non-bonded VBC complex and antibodies. To determine the amount of bonded VBC complex, the plate is incubated with TMB for 15 minutes. The color reaction is ended by addition of 100 μl 1 M sulfuric acid. The amount of bonded VBC complex is determined by measurement of the optical density at 450 nm. It is proportional to the amount of hydroxylated proline in the peptide substrate.
Alternatively, a VBC complex coupled to europium (Perkin Elmer) can be used for detection of the prolyl hydroxylation. In this case, the amount of bonded VBC complex is determined by the fluorescence with respect to time. The use of VBC complex labeled with [^35S]-methionine is moreover possible. For this, the radioactively labeled VBC complex can be prepared by in vitro transcription-translation in reticulocyte lysate.

| SMILES | IC50 [µM] |
| --- | --- |
| COCCNCc1ccc(-n2[nH]cc(-c3cccnc3)c2=O)nc1 [Example 5, 2-(5-{[(2-Methoxyethyl)amino]methyl}pyridin-2-yl)-4-pyridin-3-yl-1,2-dihydro-3H-pyrazol-3-one hydrochloride] | 6.3 |
| Cc1ccnc(-n2[nH]cc(-c3cncc(C#N)c3)c2=O)c1 [Example 8, 5-[2-(4-Methylpyridin-2-yl)-3-oxo-2,3-dihydro-1H-pyrazol-4-yl]pyridine-3-carbonitrile hydrochloride] | 5.2 |
| O=C(O)c1ccc(-n2[nH]cc(-c3cncc(Br)c3)c2=O)nc1 [Example 10, 6-[4-(5-Bromopyridin-3-yl)-5-oxo-2,5-dihydro-H-pyrazol-1-yl]pyridine-3-carboxylic acid hydrochloride] | 0.26 |

Other lines, results leading:

| IC50 [µM] | SMILES |
| --- | --- |
| 0.91 | CC(C)(C)NC(=O)c1ccc(-n2[nH]cc(-c3cccnc3)c2=O)nc1 [Example 18, N-tert-Butyl-6-(5-oxo-4-pyridin-3-yl-2,5-dihydro-1H-pyrazol-1-yl)pyridine-3-carboxamide hydrochloride] |
| 3.24 | O=c1c(-c2cccnc2)c[nH]n1-c1ccc(Cn2cccc2)cn1 [Example 22, 4-Pyridin-3-yl-2-[5-(1H-pyrrol-1-ylmethyl)pyridin-2-yl]-1,2-dihydro-3H-pyrazol-3-one hydrochloride] |
| 0.9 | O=C(NCc1ccnc(-n2[nH]cc(-c3cccnc3)c2=O)c1)Nc1c(Cl)cccc1Cl [Example 65] |
| 1.6 | Cc1ccccc1NC(=O)OCc1ccc(-n2[nH]cc(-c3cccnc3)c2=O)nc1 [Example 80] |

From patent publication US8609698B2, “Substituted dipyridyl-dihydropyrazolones and use thereof” (Bayer Intellectual Property GmbH, priority 2006, dated 2013)
